The source made the active and inactive calls. The rule behind the calls is not given here.
Assays:
[1] = target: Protein E6 (Human papillomavirus 16) (UniProt P03126); assay: Inhibition of GST-tagged Human papillomavirus 16 protein E6 interaction with His-tagged human caspase 8 expressed in Escherichia coli at 20 nM to 20 uM after 1 hr incubation followed by overnight incubation by Alpha screening technique
[2] = target: Protein E6 (Human papillomavirus 16) (UniProt P03126); assay: (§1) Inhibition of GST-tagged Human papillomavirus 16 protein E6 interaction with His-tagged human caspase 8 expressed in Escherichia coli after 1 hr incubation followed by overnight incubation by Alpha screening technique
Protein E6 = Protein E6 (Human papillomavirus 16, UniProt P03126); assay: as §1
[3] = target: Protein E6 (Human papillomavirus 16) (UniProt P03126); assay: Inhibition of GST-tagged Human papillomavirus 16 protein E6 interaction with His-tagged human FADD expressed in Escherichia coli after 1 hr incubation followed by overnight incubation by Alpha screening technique
Caspase-8 (Homo sapiens) = Caspase-8 (Homo sapiens) (UniProt Q14790); assay: Inhibition of GST-tagged human caspase 8 interaction with His-tagged human caspase 8 expressed in Escherichia coli at 0.1 to 10 uM after 1 hr followed by overnight incubation by bead-based binding assay
Chain of Caspase-8 (Homo sapiens) (Q14790 217-374 limits assumed): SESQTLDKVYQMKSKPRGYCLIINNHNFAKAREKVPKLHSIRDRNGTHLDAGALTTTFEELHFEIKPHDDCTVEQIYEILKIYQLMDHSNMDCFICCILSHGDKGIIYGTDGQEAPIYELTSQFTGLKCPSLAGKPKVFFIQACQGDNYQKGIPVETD
Chain of Caspase-8 (Homo sapiens) (Q14790 385-479 limits assumed): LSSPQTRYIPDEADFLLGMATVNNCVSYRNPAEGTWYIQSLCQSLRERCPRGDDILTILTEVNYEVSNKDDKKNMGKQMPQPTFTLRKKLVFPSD

Chain of Protein E6 (P03126 whole entry): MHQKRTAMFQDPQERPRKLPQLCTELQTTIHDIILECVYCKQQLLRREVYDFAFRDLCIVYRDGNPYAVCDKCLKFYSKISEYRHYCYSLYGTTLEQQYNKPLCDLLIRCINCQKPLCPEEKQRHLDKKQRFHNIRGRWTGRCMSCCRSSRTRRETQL
Chain of Protein E6 (Human papillomavirus 16) (P03126 whole entry): as above

Which inhibition [1] does the source give for `O=C(O)Cc1cc(Cl)c2oc(-c3ccc(Cl)cc3)c(O)c(=O)c2c1` here?
Its inhibition is “inactive”.

`COc1cc(-c2oc3cc(O)ccc3c(=O)c2O)ccc1O` was tested. Which inhibition [1] did it give?
Its inhibition is “inactive”.

Which inhibition [2] does the source give for `O=c1c(O)c(-c2ccc(O)cc2)oc2cc(O)cc(O)c12` [KAEMPFEROL] here?
Its inhibition is “Dose-dependent effect”.

What about the IC50 (Protein E6) of the same compound?
The IC50 was over 20 µM.

And the inhibition [3]?
Its inhibition is “Dose-dependent effect”.

For `COc1cc(-c2oc3cc(O)cc(O)c3c(=O)c2O)ccc1O`, which inhibition [1] is on record?
Its inhibition is “inactive”.

With `O=c1c(O)c(-c2ccc(O)c(O)c2)oc2cc(O)cc(O)c12` [QUERCETIN] as the compound, how does the IC50 (Protein E6) read?
The IC50 was over 20 µM.

For `CC(C)c1ccc(-c2oc3c(Cl)cc(CC(=O)O)cc3c(=O)c2O)cc1`, which inhibition [1] is on record?
The inhibition was “inactive”.

How did the inhibition [1] turn out when `O=c1c(O)c(-c2ccccc2)oc2ccccc12` was run?
Its inhibition is “inactive”.

With `COc1ccc2c(=O)c(O)c(-c3ccccc3)oc2c1` as the compound, how does the inhibition [1] read?
The inhibition was “inactive”.

`O=c1c(O)c(-c2ccc(O)cc2O)oc2cc(O)cc(O)c12` [MORIN] was tested. Which IC50 (Protein E6) did it give?
The IC50 was 4 µM.

And the inhibition (Caspase-8 (Homo sapiens))?
Its inhibition is “inactive”.

With `O=c1c(O)c(-c2ccccc2)oc2cc(O)cc(O)c12` as the compound, how does the inhibition [1] read?
Its inhibition is “Active”.

For `COc1cc(O)c2c(=O)c(O)c(-c3ccc(O)c(O)c3)oc2c1`, which inhibition [1] is on record?
The inhibition was “inactive”.

For `O=c1c(O)c(-c2ccccc2)oc2cc(O)ccc12`, which inhibition [1] is on record?
Its inhibition is “inactive”.

How did the inhibition [1] turn out when `O=c1c(O)c(-c2ccccc2)oc2ccc(O)cc12` was run?
Its inhibition is “inactive”.

What about the inhibition (Caspase-8 (Homo sapiens)) of the same compound?
Its inhibition is “inactive”.

With `O=C(O)Cc1cc(Cl)c2oc(-c3ccccc3)c(O)c(=O)c2c1` as the compound, how does the inhibition [1] read?
The inhibition was “inactive”.

`O=c1cc(-c2ccc(O)cc2)oc2cc(O)cc(O)c12` was tested. Which inhibition [1] did it give?
The inhibition was “inactive”.

Which results are given for `O=c1c(O)c(-c2cc(O)c(O)c(O)c2)oc2cc(O)cc(O)c12` [MYRICETIN]?
IC50 (Protein E6): 0.85 µM; inhibition (Caspase-8 (Homo sapiens)): inactive

For `O=c1cc(-c2ccccc2)oc2ccccc12`, which inhibition [1] is on record?
Its inhibition is “inactive”.

Which inhibition [1] does the source give for `O=c1c(O)c(-c2ccccc2O)oc2cc(O)cc(O)c12` here?
Its inhibition is “inactive”.

`O=c1c(O)c(-c2ccc(O)c(O)c2)oc2cc(O)ccc12` was tested. Which inhibition [1] did it give?
The inhibition was “inactive”.

— ChEMBL document CHEMBL2010646, “Small molecule inhibitors of the HPV16-E6 interaction with caspase 8” (Bioorg Med Chem Lett, 2012)
